From patent US20250169495A1, “COMPOSITIONS AND METHODS FOR CONTROLLING DROSOPHILA FLIES” (Rutgers, The State University of New Jersey, priority 2023, published 2025)

Columns and labels:
[1] = Emission rate from polyethylene sachets, semi-field cages; type: physicochemical; conditions: sachet with 2.5 mL, 24 h
Protocol: On the day of testing, two bushes were placed in each cage (FIG. 6B). Each bush in the tent was surrounded by a metal tomato cage. The bagged blueberry fruit clusters in the field were clipped and brought inside the cages. Clusters of 10 berries were created and placed in water picks. Five berry clusters were distributed randomly and evenly on each tomato cage at different heights using green twist ties (FIG. 6B). The sachets used for the treatments were prepared according to the methods described by Gale et al. (2024). They were constructed from 8 cm strips of polyethylene tubing (5.1 cm width, 2 MIL thickness; ULINE, Pleasant Prairie, WI, USA) and polyester felt (Grainger, Lake Forest, IL, USA). One end of the polyethylene tubing was sealed with an impulse sealer. A 5 cm strip of felt was placed inside the sachet's open end, and a 2.5 mL aliquot of each treatment was pipetted onto the felt. The open end was then sealed shut with the impulse sealer, entirely sealing the saturated felt. A hole was punched at the top of each sachet, away from the treatment area to avoid damaging the sealed section, and green twist ties were used to hang the sachets in the center of a bush (FIG. 6B). Before loading the sachets, the weights of the empty sachets were taken. The sachets were weighed again directly after loading with the compounds and then a final time after the 24-hour test period to measure the emission rates of each volatile. Finally, the emission rates of compounds in the semi-field and field cage studies were calculated by subtracting the final weight of the sachets from the initial weight and dividing by the time interval (24 h or 3 days). These rates were then compared across repellent treatments using ANOVA, with Tukey pairwise comparisons conducted when significant differences were found.

Drosophila suzukii = assay: Semi-field cage oviposition deterrence, potted blueberry bushes; type: in vivo; conditions: N=10; for fewer eggs laid in treated berries than in control berries: sachet 2.5 mL, 24 h
Protocol: Semi-field cage experiments were conducted from June until July to evaluate the oviposition deterrent effects of ethyl butanoate, ethyl (E)-but-2-enoate, and 2-pentylfuran against D. suzukii. These experiments are considered semi-field because they took place in an isolated open field surrounded by woods with potted plants inside outdoor cages. The cages were constructed using polyvinyl chloride (PVC) pipes (3.8 cm diameter) to construct 1.8 m×1.8 m×1.8 m frames. Screen tents (Lumite® screen portable field cages; BioQuip, CA, USA) were placed over the PVC frames, and large nails were used to secure the tents to the ground (FIG. 6A). Cages were spaced 10 m apart. To obtain blueberries for the experiment, prior to the start of the experiment, field-grown highbush blueberry (Vaccinium corymbosum L. var. ‘Bluecrop’) clusters were bagged early in the season with cloth bags when they were still green to prevent infestation from resident D. suzukii populations for use in the experiment. In addition, 80 3-to-4-year-old potted blueberry bushes were stripped of their berries and used for the experiment. On the day of testing, two bushes were placed in each cage (FIG. 6B). Each bush in the tent was surrounded by a metal tomato cage. The bagged blueberry fruit clusters in the field were clipped and brought inside the cages. Clusters of 10 berries were created and placed in water picks. Five berry clusters were distributed randomly and evenly on each tomato cage at different heights using green twist ties (FIG. 6B). The sachets used for the treatments were prepared according to the methods described by Gale et al. (2024). They were constructed from 8 cm strips of polyethylene tubing (5.1 cm width, 2 MIL thickness; ULINE, Pleasant Prairie, WI, USA) and polyester felt (Grainger, Lake Forest, IL, USA). One end of the polyethylene tubing was sealed with an impulse sealer. A 5 cm strip of felt was placed inside the sachet's open end, and a 2.5 mL aliquot of each treatment was pipetted onto the felt. The open end was then sealed shut with the impulse sealer, entirely sealing the saturated felt. A hole was punched at the top of each sachet, away from the treatment area to avoid damaging the sealed section, and green twist ties were used to hang the sachets in the center of a bush (FIG. 6B). Before loading the sachets, the weights of the empty sachets were taken. The sachets were weighed again directly after loading with the compounds and then a final time after the 24-hour test period to measure the emission rates of each volatile. In each cage, one of the bushes contained a sachet with the test volatile, while the other contained a blank sachet (control). Sachets were hung in the bushes 30 minutes prior to the start of experiments. Choice tests included: 1) control versus control; 2) control versus ethyl butanoate; […]) control versus ethyl (E)-but-2-enoate; and 4) control versus 2-pentylfuran. Fifty flies (1:1 male: female) were released in each cage at 18:00 hrs. After 24 hours, the berry clusters were collected and placed in 118 mL plastic cups. Berries were inspected under a dissection microscope for the number of eggs laid and were then incubated in 236.6 mL (8-oz) deli containers lined with two cotton pads on a laboratory bench at 22±2° C. and 55±5% relative humidity for two weeks to monitor for adult emergence. The study was replicated 10 times for each choice combination (N=4 choice combinations×2 bushes each×10 replicates=total of 80 bushes; N=50 flies×4 choice combinations×10 replicates=total of 2,000 flies). Semi-field cage data were analyzed using paired t-tests to determine differences between the number of eggs laid and adults that emerged from treated berries compared to control berries, and survival data were analyzed using two-way analysis of variance (ANOVA) (R statistical software version 4.1.1; R Development Core Team, Vienna, Austria). […]

Row | mean emission rate (±SE) [1] | Structure (SMILES) | deterrence index (DI) based on number of eggs laid (Drosophila suzukii) | difference in adult emergence between untreated and treated berries (Drosophila suzukii; berries incubated two weeks) | fewer eggs laid in treated berries than in control berries (Drosophila suzukii) | fewer flies (adult progeny) emerging from treated berries than from control berries (Drosophila suzukii; berries incubated two weeks)
1 | 82.3 ± 7.6 mg/h | CCCCCc1ccco1 [2-pentylfuran, reference compound] | performed similarly and were significantly different from the control | nonsignificant | 67% | –
2 | 54.9 ± 8.9 mg/h | C/C=C/C(=O)OCC [ethyl (E)-but-2-enoate] | performed similarly and were significantly different from the control | – | 75% | 78%
3 | 70.4 ± 14.2 mg/h | CCCC(=O)OCC [ethyl butanoate] | performed similarly and were significantly different from the control | – | 54% | 59%
